The values that follow come from ChEMBL document CHEMBL5584250, “5-HT6 receptor neutral antagonists protect astrocytes: A lesson from 2-phenylpyrrole derivatives” (Eur J Med Chem, 2024).

For data set [1], the target named is T1, 5-hydroxytryptamine receptor 1A (Homo sapiens, UniProt P08908).
T1 sequence (P08908 whole entry): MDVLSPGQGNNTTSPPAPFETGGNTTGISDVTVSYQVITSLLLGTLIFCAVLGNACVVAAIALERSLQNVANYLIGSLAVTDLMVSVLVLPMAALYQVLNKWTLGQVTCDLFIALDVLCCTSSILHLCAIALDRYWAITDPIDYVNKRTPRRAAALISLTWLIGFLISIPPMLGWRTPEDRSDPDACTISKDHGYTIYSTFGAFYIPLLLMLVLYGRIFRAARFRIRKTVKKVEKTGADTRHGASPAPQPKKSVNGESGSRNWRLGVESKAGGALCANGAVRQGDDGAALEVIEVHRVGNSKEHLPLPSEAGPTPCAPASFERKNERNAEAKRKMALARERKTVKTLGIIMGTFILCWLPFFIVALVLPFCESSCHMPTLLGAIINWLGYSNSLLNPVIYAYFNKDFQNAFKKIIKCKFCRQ
Nature of the data set: Displacement of [3H]-8-OH-DPAT from human 5-HT1A receptor extracted from HEK293 cell membrane by microbeta plate reader analysis. Format: cell membranes.

Data set [2] deals with 5-hydroxytryptamine receptor 2A (Homo sapiens, UniProt P28223). Nature of the data set: Displacement of [3H]-ketanserin from human 5-HT2A receptor extracted from CHO-K1 cell membrane by microbeta plate reader analysis. Format: cell membranes. A general note: Displacement assays read how much labelled ligand stays bound in the presence of the test substance.
Data set [3] deals with 5-hydroxytryptamine receptor 7 (Homo sapiens, UniProt P34969). Nature of the data set: Displacement of [3H]-5-CT from human 5-HT7 receptor extracted from HEK293 cell membrane by microbeta plate reader analysis. It counts as cell membranes.
Data set [4] has as its target D(2) dopamine receptor (Homo sapiens, UniProt P14416). Nature of the data set: Displacement of [3H]-raclopride from human D2L receptor extracted from HEK293 cell membrane by microbeta plate reader analysis. Format: cell membranes.
A short description of data set [5]: Drug metabolism in rat liver microsomes assessed as hydroxylation mediated metabolite formation by UPLC-MS analysis. It counts as ADME, Microsome. In general terms: Microsomes from liver hold many membrane-bound enzymes, among them those of drug oxidation.
Data set [6] has as its target 5-hydroxytryptamine receptor 6 (Homo sapiens, UniProt P50406).
Description: Displacement of [3H]-LSD from human 5-HT6 receptor extracted from HEK293 cell membrane by microbeta plate reader analysis
Data set [7] is described as follows: in vitro. Particulars: rat, microsomes.
Data set [8] in a line: in vitro. Particulars: rat, microsomes. The source holds these as a separate data set.
Data set [9] is described as follows: Drug metabolism in rat liver microsomes by UPLC-MS analysis. It counts as ADME, Microsome.
Data set [10] addresses hERG (KCNH2) potassium channel (Homo sapiens, UniProt Q12809). The data set is described as follows: Inhibition of hERG potassium channel at 1 uM relative to control. Format: toxicity. (In general: Block of hERG is tested as a sign of cardiac risk.)
Data set [11] concerns the target CYP3A4 (Homo sapiens, UniProt P08684). The data set is described as follows: Inhibition of CYP3A4 (unknown origin) at 10 uM relative to control. It counts as ADME.
The nature of data set [12]: Cytotoxicity against human SH-SY5Y cells incubated for 3 hrs by MTT assay. Format: toxicity, cell-based.
Data set [13] in a line: Cytotoxicity against rat PC12 cells incubated for 3 hrs by MTT assay. Format: toxicity, cell-based, PC-12.
A short description of data set [14]: Cytotoxicity against mouse C8D1A cells incubated for 3 hrs by MTT assay. It counts as toxicity, cell-based, C8-D1A.
Data set [15] is described as follows: Cytotoxicity against human astrocytes incubated for 3 hrs by MTT assay. Format: toxicity, cell-based, Astrocyte.

As usually defined, the Ki is a measure of affinity in units of concentration, obtained from inhibition or displacement. A higher Ki goes with a looser hold on the target. As usually defined, the half-life is the time in which the quantity being followed falls by half. A high value points to slow decline. The microsomal CLint is a measure of how fast metabolising enzymes remove a compound, apart from limits set by blood flow. By inhibition is commonly meant the percentage by which the read-out fell short of the control. Read a low inhibition as a weak effect. The term IC50 denotes the concentration at which inhibition is half-maximal.

5-hydroxytryptamine receptor 6, sequence (P50406 whole entry): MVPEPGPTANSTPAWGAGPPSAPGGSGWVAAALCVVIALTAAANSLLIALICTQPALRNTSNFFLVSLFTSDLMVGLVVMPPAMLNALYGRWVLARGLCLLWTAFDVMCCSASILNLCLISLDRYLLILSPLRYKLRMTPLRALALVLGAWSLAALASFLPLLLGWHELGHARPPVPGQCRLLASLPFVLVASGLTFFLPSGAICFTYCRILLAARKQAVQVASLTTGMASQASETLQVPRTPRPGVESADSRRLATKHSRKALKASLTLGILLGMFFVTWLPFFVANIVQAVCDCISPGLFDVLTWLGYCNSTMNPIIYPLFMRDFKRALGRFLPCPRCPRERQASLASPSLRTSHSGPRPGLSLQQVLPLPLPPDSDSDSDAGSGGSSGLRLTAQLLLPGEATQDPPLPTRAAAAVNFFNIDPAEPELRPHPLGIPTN
5-hydroxytryptamine receptor 7, sequence (P34969 whole entry): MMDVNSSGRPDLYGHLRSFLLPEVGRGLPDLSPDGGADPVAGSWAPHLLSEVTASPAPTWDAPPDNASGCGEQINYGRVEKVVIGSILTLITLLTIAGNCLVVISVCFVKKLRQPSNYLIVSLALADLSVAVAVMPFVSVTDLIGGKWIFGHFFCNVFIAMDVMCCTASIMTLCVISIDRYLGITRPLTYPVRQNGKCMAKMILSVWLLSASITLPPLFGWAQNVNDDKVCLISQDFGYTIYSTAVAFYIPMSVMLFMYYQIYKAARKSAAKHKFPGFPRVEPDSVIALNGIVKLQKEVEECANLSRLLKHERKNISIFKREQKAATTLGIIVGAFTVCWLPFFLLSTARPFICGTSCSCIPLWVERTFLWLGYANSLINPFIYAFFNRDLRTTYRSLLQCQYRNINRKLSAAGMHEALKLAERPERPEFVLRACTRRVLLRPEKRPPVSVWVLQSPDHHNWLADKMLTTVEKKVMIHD
D(2) dopamine receptor, sequence (P14416 whole entry): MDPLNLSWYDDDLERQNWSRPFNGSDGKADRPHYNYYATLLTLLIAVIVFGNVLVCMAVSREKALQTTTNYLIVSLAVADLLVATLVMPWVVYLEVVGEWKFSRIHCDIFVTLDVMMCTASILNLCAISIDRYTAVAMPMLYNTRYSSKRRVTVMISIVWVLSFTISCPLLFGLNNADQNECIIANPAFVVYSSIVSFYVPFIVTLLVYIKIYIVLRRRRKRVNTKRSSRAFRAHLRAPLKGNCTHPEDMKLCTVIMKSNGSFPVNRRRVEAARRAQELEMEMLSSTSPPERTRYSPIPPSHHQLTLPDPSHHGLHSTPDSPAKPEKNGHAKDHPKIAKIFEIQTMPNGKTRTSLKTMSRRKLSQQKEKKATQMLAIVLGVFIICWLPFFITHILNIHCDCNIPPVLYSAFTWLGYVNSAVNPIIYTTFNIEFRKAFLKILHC
5-hydroxytryptamine receptor 2A, sequence (P28223 whole entry): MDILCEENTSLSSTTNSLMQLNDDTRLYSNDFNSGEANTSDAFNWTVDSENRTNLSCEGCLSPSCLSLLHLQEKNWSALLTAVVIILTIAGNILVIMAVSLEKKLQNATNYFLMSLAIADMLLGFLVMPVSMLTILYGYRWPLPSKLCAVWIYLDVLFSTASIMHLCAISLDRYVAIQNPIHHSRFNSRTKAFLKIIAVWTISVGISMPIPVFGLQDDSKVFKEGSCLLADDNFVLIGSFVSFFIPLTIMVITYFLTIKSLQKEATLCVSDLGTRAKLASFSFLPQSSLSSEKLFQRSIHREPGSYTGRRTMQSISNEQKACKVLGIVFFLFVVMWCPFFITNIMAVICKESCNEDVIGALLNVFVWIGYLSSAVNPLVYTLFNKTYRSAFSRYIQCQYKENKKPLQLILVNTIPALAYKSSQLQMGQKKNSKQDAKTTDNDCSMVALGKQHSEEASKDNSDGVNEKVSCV
hERG (KCNH2) potassium channel, sequence (Q12809 whole entry): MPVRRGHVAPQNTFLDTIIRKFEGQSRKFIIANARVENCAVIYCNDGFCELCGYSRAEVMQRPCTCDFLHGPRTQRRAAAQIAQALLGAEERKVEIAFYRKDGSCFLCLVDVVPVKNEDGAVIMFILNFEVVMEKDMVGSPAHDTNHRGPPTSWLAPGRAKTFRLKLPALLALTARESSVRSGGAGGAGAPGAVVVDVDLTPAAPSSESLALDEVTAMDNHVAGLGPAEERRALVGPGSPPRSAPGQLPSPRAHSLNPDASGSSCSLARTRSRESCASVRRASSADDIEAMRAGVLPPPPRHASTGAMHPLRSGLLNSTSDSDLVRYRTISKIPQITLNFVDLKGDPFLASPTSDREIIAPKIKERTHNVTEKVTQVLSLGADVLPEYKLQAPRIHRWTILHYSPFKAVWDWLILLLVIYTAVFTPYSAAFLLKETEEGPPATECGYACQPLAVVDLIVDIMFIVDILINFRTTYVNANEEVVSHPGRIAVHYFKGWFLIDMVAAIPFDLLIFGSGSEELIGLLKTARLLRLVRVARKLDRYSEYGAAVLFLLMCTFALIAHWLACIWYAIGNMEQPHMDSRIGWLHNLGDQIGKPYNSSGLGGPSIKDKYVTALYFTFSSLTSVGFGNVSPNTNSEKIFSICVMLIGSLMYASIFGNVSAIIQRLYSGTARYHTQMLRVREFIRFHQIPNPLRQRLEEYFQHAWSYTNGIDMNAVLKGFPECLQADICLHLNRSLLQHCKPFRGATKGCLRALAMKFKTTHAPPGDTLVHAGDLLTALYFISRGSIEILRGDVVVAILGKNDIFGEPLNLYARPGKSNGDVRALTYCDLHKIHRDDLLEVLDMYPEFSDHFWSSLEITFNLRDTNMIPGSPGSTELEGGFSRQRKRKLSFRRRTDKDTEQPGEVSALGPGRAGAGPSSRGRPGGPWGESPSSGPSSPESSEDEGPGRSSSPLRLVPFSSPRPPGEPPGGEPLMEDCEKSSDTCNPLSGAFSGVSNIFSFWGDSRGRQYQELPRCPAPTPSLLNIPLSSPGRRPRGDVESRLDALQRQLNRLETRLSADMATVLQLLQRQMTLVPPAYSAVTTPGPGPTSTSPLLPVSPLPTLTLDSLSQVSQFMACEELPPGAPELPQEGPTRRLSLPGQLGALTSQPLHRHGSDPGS
CYP3A4, sequence (P08684 whole entry): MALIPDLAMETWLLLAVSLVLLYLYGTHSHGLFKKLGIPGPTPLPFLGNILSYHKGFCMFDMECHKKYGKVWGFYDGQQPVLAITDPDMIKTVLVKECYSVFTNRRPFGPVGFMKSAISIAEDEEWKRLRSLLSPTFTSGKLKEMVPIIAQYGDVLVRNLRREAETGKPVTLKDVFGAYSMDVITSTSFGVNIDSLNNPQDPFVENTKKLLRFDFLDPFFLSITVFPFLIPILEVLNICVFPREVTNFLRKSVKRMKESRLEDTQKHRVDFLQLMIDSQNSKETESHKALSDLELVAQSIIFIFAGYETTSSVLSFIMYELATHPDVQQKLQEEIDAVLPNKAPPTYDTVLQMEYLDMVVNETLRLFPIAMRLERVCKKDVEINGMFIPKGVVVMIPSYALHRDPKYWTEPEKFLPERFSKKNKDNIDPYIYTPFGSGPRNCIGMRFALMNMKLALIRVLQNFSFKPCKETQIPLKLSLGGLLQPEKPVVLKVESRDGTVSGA

Turning to `O=S(=O)(c1cccc(N2CCNCC2)c1)n1cccc1-c1ccccc1`, the Ki in data set [1] is 755 nM; in [2], 412 nM; in [3] it was 12300 nM; in data set [4], 2170 nM; in [6], 1 nM. In addition, in [5], the Drug metabolism entry is on record as “Metabolite_Detected”. For the same compound, the half-life at 1 h, 10 µM in data set [7] is 83.6 min. Besides, the microsomal CLint at 1 h, 10 µM in data set [8] came to 24.9 µL/min/mg.
`COc1cccc(-c2cccn2S(=O)(=O)c2cccc(N3CCNCC3)c2)c1`: the Ki in data set [1] turned out to be 916 nM; in [2], 655 nM; in data set [3] it was 11600 nM; in data set [4] it was 5200 nM; in data set [6], 1 nM. Further, the Drug metabolism entry in [9] is “Metabolite_Notdetected”. The compound also had a half-life at 1 h, 10 µM in data set [7] of 36.7 min. Also, the microsomal CLint at 1 h, 10 µM in [8] was 56.7 µL/min/mg.
For the compound `O=S(=O)(c1cccc(NC2CCNCC2)c1)n1cccc1-c1ccccc1`, the Ki in [1] was 40600 nM; in data set [2] it was 1540 nM; in data set [3], 1990 nM; in [4] it was 10800 nM; in data set [6], 4 nM. Also, in data set [5], the Drug metabolism entry is “Metabolite_Detected”. The same compound had a half-life at 1 h, 10 µM in data set [7] of 101 min. The compound also returned a microsomal CLint at 1 h, 10 µM in [8] of 20.6 µL/min/mg.
With `O=S(=O)(c1ccccc1)n1cccc1-c1cccc(N2CCNCC2)c1`, the Ki in [1] amounted to 2470 nM; in [2] it was 15900 nM; in data set [3] it was 1320 nM; in data set [4] it was 2700 nM; in [6] it was 27 nM. In data set [5], the Drug metabolism entry is “Metabolite_Detected”. Moreover, in data set [7], the half-life at 1 h, 10 µM was determined as 15.3 min. Also, the microsomal CLint at 1 h, 10 µM in data set [8] amounted to 109 µL/min/mg.
As to `O=C(NC1CCNCC1)c1ccn(S(=O)(=O)c2cccc(Cl)c2)c1-c1cccc(F)c1`, the Ki in data set [1] was found to be 68600 nM; in [2], 10600 nM; in data set [3], 84000 nM; in data set [4], 7690 nM.
On to `O=S(=O)(c1cccc(N2CCNCC2)c1)n1cccc1-c1cccc(F)c1`, for which the Ki in data set [1] was 1840 nM; in data set [2], 2510 nM; in [3], 11500 nM; in data set [4], 4330 nM; in data set [6], 1 nM. In addition, the Drug metabolism entry in data set [9] was “Metabolite_Notdetected”. For the same compound, at 1 µM the inhibition in [10] was 8%. In addition, at 10 µM the inhibition in data set [11] was 94%. Further, the IC50 at 3 h in [12] was determined as 18500 nM; in data set [13], 25600 nM; in data set [14], 37400 nM; in [15], 39300 nM. In addition, in [7], the half-life at 1 h, 10 µM was determined as 49.3 min. Moreover, in data set [8], the microsomal CLint at 1 h, 10 µM turned out to be 32.4 µL/min/mg.
